Laboratory results: US11130780B2, “Inhibitors of growth factor activation enzymes” (Washington University, priority 2015, dated 2021)
pEC50: −log10 of the molar value.

Assays:
[1] = molecular target: T1, HGFA (Homo sapiens, UniProt Q04756); assay: Biochemical assay for proteolysis of pro-HGF by HGFA; conditions: immunoblot; inhibitors 0-12.5 μM; 1 nM HGFA
T1 construct: His6 tag (N); seven amino acid spacer and seven amino acid TEV cleavage site (N); Honey Bee melittin signal peptide (N); made in house; host or cells: High 5 insect cells (baculovirus; virus raised in Sf9)
T1 sequence (Q04756 373-655): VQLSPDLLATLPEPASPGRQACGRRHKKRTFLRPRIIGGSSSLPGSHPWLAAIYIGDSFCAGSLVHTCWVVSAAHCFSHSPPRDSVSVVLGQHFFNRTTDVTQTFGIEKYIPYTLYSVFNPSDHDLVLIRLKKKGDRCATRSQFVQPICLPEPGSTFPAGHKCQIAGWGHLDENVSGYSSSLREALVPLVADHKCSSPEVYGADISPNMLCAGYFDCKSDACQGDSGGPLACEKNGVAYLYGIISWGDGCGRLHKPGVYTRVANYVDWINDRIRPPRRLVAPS
Experimental: (§1) In order to determine efficiency of our recombinant HGFA we performed a concentration response of HGFA using a fixed concentration of pro-HGF and pro-MSP.
(§2) After 30 minutes incubation at room temperature (25° C.), 25 ng of pro-HGF (R&D Systems, NKG011306A) was added. […] Proteins were transferred to Millipore Immobilon-P membranes (Billerica, Mass.) and then immunoblotted at 4° C. with anti-HGF antibody (R&D Systems, AF-294-NA) and HRP conjugated donkey anti-goat IgG (Santa Cruz, SC-2020) diluted 1:500 and 1:5000 in 5% milk/TBST (5% Carnation nonfat dried milk/10 mM Tris, 150 mM NaCl, 0.05% TWEEN 20, pH 8.0), respectively. Membranes were washed in TBST, immersed in Millipore Luminata Crescendo Westem-HRP Substrate for 5 minutes, and then exposures made on a BioRad ChemiDoc MP Imaging System (Hercules, Calif.). For pro-MSP proteolysis assays, the procedures were similar, except that the HGFA concentration was 75 nM, pro-MSP (R&D Systems ZN081306A) concentration was 50 ng per reaction, and 1:500 dilution of anti-MSP antibody (R&D Systems, AF352) was used for MSP detection during immunoblotting.

[2] = molecular target: T1, HGFA; assay: Biochemical assay for proteolysis of pro-MSP by HGFA; conditions: immunoblot; inhibitors 0-12.5 μM
Experimental: as §1, §2

[3] = molecular target: T1, HGFA; assay: Dilution recovery experiments with HGFA; type: biochemical; conditions: rapid 1:350 dilution; Boc-QLR-AMC 250 μM
Experimental: After incubating for 20 minutes at room temperature, these reactions were diluted rapidly (1:350) in TNC buffer containing 250 μM Boc-QLR-AMC substrate (˜7 times Kin). Activity was monitored by recording the change in fluorescence (excitation at 380 nm and emission at 460 nn) over time in a Biotek Synergy 2 plate reader. GraphPad Prism was used to plot the change in fluorescence over time.

[4] = molecular target: T1, HGFA; assay: HGFA competition assay of inhibitor and substrate; type: biochemical; conditions: 0, 0.25, 0.5, 1.0 μM inhibitor; Pefachrome
Experimental: From the plots of the mean reaction velocity versus substrate concentration and the Michaelis-Menten enzyme kinetics equation within GraphPad Prism version 6.04 for Windows, the reaction Vmax and subsequent Km for each concentration of inhibitor was determined as shown in the FIG. 1.

[5] = test system: c-MET phosphorylation in MDA-MB-231 cells; assay: c-MET phosphorylation (Y1234/1235) in MDA-MB-231 cells treated with HGFA processed pro-HGF; type: cell-based, human; conditions: pro-HGF/HGFA reactions, read-out: EC50, inhibition of c-MET phosphorylation
Description: To show the inhibition provided by the tetrapeptide compounds would have effects on cell signaling through c-MET kinase, a phosphorylation assay using the invasive breast cancer cell line, MDA-MB-231 was developed. This cell line has high expression of c-MET and pro-HGFA but not pro-HGF.
MDA-MB-231 cells were maintained in RPMI medium (Sigma-Aldrich R8758, St. Louis, Mo.) containing 10% fetal bovine serum (Sigma F2442) and 1× Penicillin/Streptomycin (Pen/Strep) antibiotics (Thermo Fisher SV30010). […] After 18 hours, cells were switched to fresh starve media and then treated with HGFA Proteolysis reactions containing 1 nM HGFA, 50 ng pro-HGF and various amounts of inhibitors. […] Lysate aliquots were mixed with reducing SDS gel loading buffer and run on 10% PAGE.
Immunoblots were performed as described previously, except primary antibodies, anti-phospho cMet (Cell Signaling, CS3077) and anti-total cMet (Cell Signaling, CS3127) were used and diluted in 5% BSA/TBST. Secondary antibodies, HRP-anti rabbit antibody (CS7074) and HRP-anti mouse (CS7076) were used, respectively. All antibodies were used at a 1:1000 dilution. Images were obtained and quantitated using BioRad ChemiDoc MP Imaging System. cMet phosphorylation signals were normalized using the total cMet signals and % inhibition calculated using the ratio of inhibited versus uninhibited HGFA Proteolytic reactions. […]

[6] = test system: RON phosphorylation in T47D cells; assay: RON phosphorylation sandwich ELISA in T47D cells; type: cell-based; conditions: HGFA-mediated pro-MSP stimulation
Experimental: Detection and quantification of pRON in T47D cells was performed using a sandwich ELISA assay. RON capture antibody (R&D Systems, AF691) was immobilized on high protein binding 96-well plates. Next, cell lysates are added to wells, followed by incubation with an anti-phosphotyrosine-HRP antibody and then addition of a TMB substrate. Optical density of wells was determined by reading plates at 450 nm in a plate reader.

SMILES	inhibition of pro-HGF activation by HGFA [1]	inhibition of pro-MSP proteolysis by HGFA [2]	reversibility of HGFA inhibition [3]	mode of inhibition versus substrate [4]	pEC50 [5]	RON phosphorylation (pRON) [6]
CC(=O)N[C@@H](CCCCN)C(=O)N[C@@H](CCC(N)=O)C(=O)N[C@@H](CC(C)C)C(=O)N[C@@H](CCCNC(=N)N)C(=O)c1nccs1 [Compound 5, Ac-KQLR(SEQ ID NO: 1)-kt]	dose-dependent inhibition	dose-dependent inhibition	reversible inhibitor	competitive		
CC(=O)N[C@@H](CCCCN)C(=O)N[C@@H](CCCNC(=N)N)C(=O)N[C@@H](CC(C)C)C(=O)N[C@@H](CCCNC(=N)N)C(=O)c1nccs1 [Compound 5g, Ac-KRLR(SEQ ID NO: 8)-kt]	dose-dependent inhibition	dose-dependent inhibition			6.74	
CC(=O)N[C@@H](Cc1c[nH]c2ccccc12)C(=O)N[C@@H](CCCNC(=N)N)C(=O)N[C@@H](CC(C)C)C(=O)N[C@@H](CCCNC(=N)N)C(=O)c1nccs1 [Compound 5h, Ac-WRLR(SEQ ID NO: 9)-kt]	dose-dependent inhibition	dose-dependent inhibition				

Now from value to molecule, other results behind:

inhibition of pro-HGF activation by HGFA [1]	inhibition of pro-MSP proteolysis by HGFA [2]	reversibility of HGFA inhibition [3]	mode of inhibition versus substrate [4]	pEC50 [5]	SMILES	RON phosphorylation (pRON) [6]
	dose-dependent inhibition				CC(=O)N[C@@H](CO)C(=O)N[C@@H](CCCNC(=N)N)C(=O)N[C@@H](CC(C)C)C(=O)N[C@@H](CCCNC(=N)N)C(=O)c1nccs1 [Compound 6e, Ac-SRLR(SEQ ID NO: 15)-kt]	
dose-dependent inhibition	dose-dependent inhibition				N=C(N)c1ccc2cc(OC(=O)c3ccc(N=C(N)N)cc3)ccc2c1 [Nafamostat, reference compound]	reduces pRON to background levels
